Patent publication US20090291857A1, “METHODS TO IDENTIFY INHIBITORS OF THE UNFOLDED PROTEIN RESPONSE” (THE BOARD OF TRUSTEES OF THE LELAND STANFORD JUNIOR …, priority 2006, published 2009)

Key:
[1] = Toxicity of increasing doses in SCID mice; type: in vivo
Method: Female 4-6 week-old SCID (B6.CB17) mice supplied by Stanford University Animal Facility were housed in the same facility (American Association of Laboratory Animal Care-approved) with 12 hour light cycles. Food and water were provided ad libitum. All experiments were approved by the institutional care and use committee. The potential toxicities of irestatin 9389 were examined in SCID mice injected i.p. once daily over 4 consecutive days with increasing doses of irestatin 9389 or vehicle control. […] For xenografts, 2×10^6 HT1080 fibrosarcoma cells were resuspended in 50-75 μl PBS and injected s.c. in the dorsal flanks of host mice. When the implanted tumors reached a mean volume of ˜150 mm^3, mice were randomly assigned into different treatment groups. Mice were dosed by i.p. bolus injection with either vehicle (50% DMSO, 20% cremophor EL, 30% ethanol) or irestatin 9389 (50 mg/kg). Tumors (6-8 per group) were measured every 2-4 days with calipers. Tumor volume was calculated using the formula [(W^2×L) 0.52] where W=width and L=length.

Grp78 = Grp78 immunoblot in HT1080 cells; type: cell-based, human; details: 2.5 μM, 16 hours (also 24 or 36 hours)
Method: Cells (2×10^6) were cultured in 10-cm dishes, collected using a cell scraper at 4° C., and lysed by addition of 150 μl cell lysis buffer [50 mM Tris pH 7.4, 150 mM NaCl, 10% glycerol, 0.5% Triton X-100. 0.5% NP-40, 2 mM Na3VO4, 20 mM beta-glycerophosphate, 10 mM NaF, 1 mM DTT, 1 mM PMSF). Lysates were centrifuged for 5 min at 10,000×g, and proteins (˜40 μg) were resolved by SDS-PAGE followed by semi-dry transfer to nitrocellulose membranes. Membranes were blocked in TBS-5% milk supplemented with 0.1% Tween-20. The blots were then probed overnight with relevant antibodies, washed, and incubated for 2 hours with species-specific secondary antibodies conjugated to horseradish peroxidase. After washing in block solution, immunoreactive material was detected by enhanced chemiluminescence (SuperSignal West Dura Extended, Pierce, Inc., Rockville, Ill.).
HT1080 cells were exposed to DMSO vehicle (lane 1), irestatin 9389 (2.5 μM; lane 2) for 16 hours or Tm (5 μg/ml; lane 3) for 8 hours. Following treatments, cells were harvested, lysed, and analyzed by immunoblotting using anti-Grp78 antibody (top) or anti-actin (bottom) as a loading control. […] Cell lysates were analyzed by Western immunoblotting using anti-IRE1α (bottom) or anti-phospho-IRE1α antibodies (top). […] Lysates were analyzed by Western blot using antisera specific for phospho-JNK1 (top) or total JNK1 (bottom). […]

## Cc1csc(NC(=O)CSc2nc3c(c(C(F)(F)F)c2C#N)CCC3)n1 [Compound 9389]
[1]; SCID mice, i.p., 50-60 mg/kg
  toxicity of dosing regimen: without apparent toxicity
[1]; female, SCID (B6.CB17), mouse, in vivo, 4 days
  dosing regimen of 50-60 mg/kg relative to LD50: 75 % of the LD50 value
Grp78; listed as Irestatin 9389
  Grp78 levels: does not modulate the expression of Grp78
Grp78; listed as irestatin 9389
  Grp78 levels: no effect on Grp78 levels
